Assay results: US20230181491A1, “COMPOSITIONS AND METHODS FOR THE TREATMENT AND MANAGEMENT OF INFLAMMATION USING HYDROXYNORKETAMINE” (SPIRIFY PHARMA INC., priority 2020, published 2023)
Structures can show the parent of a compound that is named as a salt. Where two headings read alike, the source gives them in different places.

Key:
human primary monocytes = assay: Viability of human primary monocytes (Alamar Blue); conditions: 50 μM and 250 μM; for viability of human primary monocytes: then 24 h LPS
Protocol: Viability of human primary monocytes—viable human primary monocyte cells were counted using Alamar Blue. Treatment with toxic amounts of sodium fluoride (NaF at 250 μg/ml) was used as control.
To this end, human primary monocytes were incubated for 24 hours and 48 hours with (R,S)-ketamine, (2R,6R)-hydroxynorketamine, (R,S)-norketamine, and (R,S)-dehydronorketamine at concentrations of 50 μM and 250 μM. LPS alone and treatment with dexamethasone (1 μM) were used as controls. Monocyte cells' viability was measured using Alamar blue to evaluate toxicity of the agents.

[1] = system: LPS-induced human primary monocytes; assay: Release of cytokines (IL-6, TNF-α, IL-8, IL-1β) and PGE2 from LPS-induced human primary monocytes (ELISA, normalized to LPS = 100%); type: cell-based; conditions: for effect on secretion of all proinflammatory cytokines tested (IL-6, IL-1β, TNF-α, IL-8): 0.1 μM-250 μM; for inhibition at 50 µM / inhibition at 250 µM: Homo sapiens, Monocyte
rats = conditions: cited from earlier work
rodents = conditions: cited from earlier work
COVID-19 patients = conditions: cited from earlier work
[2] = system: radical prostatectomy patients; conditions: cited from earlier work
[3] = 50 μM and 250 μM, 24 h pre-treatment, then 24 h LPS
[4] = 50 μM and 250 μM, 48 h pre-treatment, then 24 h LPS
[5] = 30 min pre-treatment, then 24 h LPS
[6] = 50 μM, 48 h pre-treatment, then 24 h LPS
[7] = 250 μM, 30 min pre-treatment, then 24 h LPS, read-out: inhibition of LPS-induced IL-1β release
[8] = 250 μM, 30 min pre-treatment, then 24 h LPS, read-out: inhibition of LPS-induced IL-6 release
[9] = 250 μM, 30 min pre-treatment, then 24 h LPS, read-out: inhibition of LPS-induced IL-8 release
[10] = 250 μM, 30 min pre-treatment, then 24 h LPS, read-out: inhibition of LPS-induced TNF-α release
[11] = 250 μM, 24 h pre-treatment, then 24 h LPS, read-out: inhibition of LPS-induced IL-6 release
[12] = 250 μM, 24 h pre-treatment, then 24 h LPS, read-out: inhibition of LPS-induced TNF-α release
[13] = 250 μM, 48 h pre-treatment, then 24 h LPS, read-out: inhibition of LPS-induced TNF-α release
[14] = 250 μM, 30 min pre-treatment, then 24 h LPS
[15] = 250 μM, 24 h pre-treatment, then 24 h LPS

Row | Compound | effect on IL-6 secretion [1, 3] | effect on LPS-induced IL-8 release [1, 3] | effect on PGE2 secretion [1, 3] | effect on TNF-α secretion [1, 3] | effect on IL-6 secretion [1, 4] | effect on PGE2 secretion [1, 4] | effect on TNF-α secretion [1, 4] | anesthetic effects (rats) | effect on secretion of all proinflammatory cytokines tested (IL-6, IL-1β, TNF-α, IL-8) [1, 5] | also measured
1 | NC1(c2ccccc2Cl)CCC=CC1=O (racemic) [(R,S)-dehydronorketamine] | dramatically reduced all cytokines release | dramatically reduced all cytokines release | dramatically reduced | dramatically reduced all cytokines release | dramatically reduced all cytokines release | dramatically reduced | dramatically reduced all cytokines release | – | – | viability of human primary monocytes (human primary monocytes; 24 h pre-treatment): highly toxic to the cells; viability of human primary monocytes (human primary monocytes; 48 h pre-treatment): induced a massive cells' mortality; effect on LPS-mediated IL-8 release [1, 4]: dramatically reduced all cytokines release
2 | CNC1(c2ccccc2Cl)CCCCC1=O (racemic) [(R,S)-ketamine hydrochloride] | inhibition in the secretion | without affecting IL-8 | inhibition in the secretion | inhibition in the secretion | inhibition of TNF-α, IL-6, and PGE2 secretion | inhibition of TNF-α, IL-6, and PGE2 secretion | inhibition of TNF-α, IL-6, and PGE2 secretion | produced anesthetic actions | potent inhibitory effect | inhibition at 50 µM [1, 6]: ~40%; inhibition at 250 µM [1, 7]: 30 to 60%; inhibition at 250 µM [1, 8]: 30 to 60%; inhibition at 250 µM [1, 9]: 30 to 60%; inhibition at 250 µM [1, 10]: 30 to 60%; inhibition at 250 µM [1, 11]: ~30%; inhibition at 250 µM [1, 12]: ~70%; inhibition at 250 µM [1, 13]: ~75%
3 | NC1(c2ccccc2Cl)CCCCC1=O (racemic) [(R,S)-norketamine] | remained without any significant change | remained without any significant change | promoted the secretion of PGE2 | inhibited the secretion of TNF-α only at the higher dose tested | inhibited the secretion of TNF-α and IL-6 | promoted the secretion of the proinflammatory agent PGE2 at 250 μM | inhibited the secretion of TNF-α and IL-6 | produced anesthetic actions | – | –
4 | N[C@@]1(c2ccccc2Cl)CCC[C@@H](O)C1=O [(2R,6R)-2-amino-2-(2-chlorophenyl)-6-hydroxycyclohexanone] | inhibition in the secretion | not affected | inhibition in the secretion | inhibition in the secretion | inhibition of TNF-α, IL-6, and PGE2 secretion | inhibition of TNF-α, IL-6, and PGE2 secretion | inhibition of TNF-α, IL-6, and PGE2 secretion | – | cytokines release decrease in a dose dependent manner | antidepressant-relevant behavioral responses (rodents): exert antidepressant-relevant behavioral responses; safety to monocytes (viability), overall conclusion (human primary monocytes; 24 h and 48 h pre-treatment): monocytes safety; inhibition at 50 µM [1, 6]: ~20%; inhibition at 250 µM [1, 7]: ~20%; inhibition at 250 µM [1, 8]: ~20%; inhibition at 250 µM [1, 9]: ~20%; inhibition at 250 µM [1, 10]: ~30%; inhibition at 250 µM [1, 11]: ~35%; inhibition at 250 µM [1, 12]: ~40%; inhibition at 250 µM [1, 13]: ~55%
5 | N[C@]1(c2ccccc2Cl)CCC[C@H](O)C1=O [(2S,6S)-hydroxynorketamine hydrochloride, (2S,65)-2-amino-2-(2-chlorophenyl)-6-hydroxycyclohexanone] | – | not affected | – | – | – | – | – | – | cytokines release decrease in a dose dependent manner | antidepressant-relevant behavioral responses (rodents): exert antidepressant-relevant behavioral responses; inhibition of LPS-induced TNF-α release [1, 6]: approx. 30%; inhibition of LPS-induced IL-1β release [1, 14]: ~20%; inhibition of LPS-induced IL-6 release [1, 14]: ~20%; inhibition of LPS-induced IL-8 release [1, 14]: ~20%; inhibition of LPS-induced TNF-α release [1, 14]: approx. 30%; inhibition of LPS-induced IL-6 release [1, 15]: about 10%; inhibition of LPS-induced TNF-α release [1, 15]: approx. 30%; inhibition of LPS-induced TNF-α release ([1]; 250 μM, 48 h pre-treatment, then 24 h LPS): approx. 40%
6 | Cc1ccc(-c2cc(C(F)(F)F)nn2-c2ccc(S(N)(=O)=O)cc2)cc1 [Celebrex] | – | – | – | – | – | – | – | – | – | PGE2 levels (COVID-19 patients): significantly reduced
7 | C[C@@H]1C[C@H]2[C@@H]3CCC4=CC(=O)C=C[C@]4(C)[C@@]3(F)[C@@H](O)C[C@]2(C)[C@@]1(O)C(=O)CO [Dexamethasone, dexamethasone] | – | – | – | – | – | – | – | – | – | reduction of cytokines release ([1]; 10 μM, control, 30 min pre-treatment study (not shown)): about 60%
8 | CN[C@]1(c2ccccc2Cl)CCCCC1=O [S-ketamine, (S)-ketamine] | – | – | – | – | – | – | – | – | – | surgery-associated increase in IL-6 [2]: attenuates; surgery-associated increase in TNF [2]: attenuates
9 | (2R,6R;2S,6S)-HNK | – | – | – | – | – | – | – | no anesthetic or hyperlocomotor effects | – | –
